Laboratory results from patent publication US20240132513A1, “BENZAZEPINE DERIVATIVES, COMPOSITIONS, AND METHODS FOR TREATING COGNITIVE IMPAIRMENT” (AGENEBIO, INC., priority 2022, published 2024).
Read-outs that look alike come from different tables or passages of the source.

Experiments:
α5β3γ2 GABAA R = α5β3γ2 GABAA R (Homo sapiens, UniProt P18507+P31644); assay: Binding activity on GABAA R: inhibition of [3H]Ro15-1788 binding, α5 containing receptor
Outline: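 Membranes from dexamethasone-induced (0.5 μM, 1 day) Ltk cells stably expressing α5β3γ2 receptors, 0.2 mg/ml protein, incubated with [3H]Ro15-1788 for 1 h at 4 °C in 50 mM KH2PO4/1 mM EDTA/0.2 M KCl, pH 7.4. Nonspecific binding with 10 μM diazepam; bound ligand by GF/B filtration and scintillation counting, triplicates.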

GABAA R (α5β2γ2) = biological target: T1, GABAA R (α5β2γ2) (Homo sapiens, UniProt P18507+P31644); assay: Positive allosteric modulator activity: potentiation of EC20 GABA current in oocytes; format: cell-based
T1 construct: expressed in transfected cells
Outline: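 Xenopus oocytes injected with 1 ng α5:β2:γ2 cDNA (1:1:10 by weight), tested day 2, voltage-clamped at −60 mV under MBS superfusion.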

[1] = read-out: GABA α5 Functional Data: potentiation, @ 100 nM, EC20 GABA, ranges of the column heads
[2] = ranges of the column heads, [3H]Ro15-1788, Ltk cell membranes
[3] = read-out: GABA α5 Functional Data: potentiation

Sequence of α5β3γ2 GABAA R (P31644 32-462): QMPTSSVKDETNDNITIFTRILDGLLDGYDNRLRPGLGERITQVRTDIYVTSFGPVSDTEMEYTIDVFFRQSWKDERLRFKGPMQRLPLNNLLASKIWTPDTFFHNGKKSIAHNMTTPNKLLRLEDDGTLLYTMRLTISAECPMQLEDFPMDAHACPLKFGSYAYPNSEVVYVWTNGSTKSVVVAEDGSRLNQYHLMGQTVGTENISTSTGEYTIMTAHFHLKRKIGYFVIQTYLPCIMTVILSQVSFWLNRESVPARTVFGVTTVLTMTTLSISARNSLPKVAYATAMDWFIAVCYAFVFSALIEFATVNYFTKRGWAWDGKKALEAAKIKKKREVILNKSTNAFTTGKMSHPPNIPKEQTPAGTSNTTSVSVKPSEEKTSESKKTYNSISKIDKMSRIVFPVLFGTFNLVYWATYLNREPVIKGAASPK
Sequence of α5β3γ2 GABAA R (P28472 26-473 partner): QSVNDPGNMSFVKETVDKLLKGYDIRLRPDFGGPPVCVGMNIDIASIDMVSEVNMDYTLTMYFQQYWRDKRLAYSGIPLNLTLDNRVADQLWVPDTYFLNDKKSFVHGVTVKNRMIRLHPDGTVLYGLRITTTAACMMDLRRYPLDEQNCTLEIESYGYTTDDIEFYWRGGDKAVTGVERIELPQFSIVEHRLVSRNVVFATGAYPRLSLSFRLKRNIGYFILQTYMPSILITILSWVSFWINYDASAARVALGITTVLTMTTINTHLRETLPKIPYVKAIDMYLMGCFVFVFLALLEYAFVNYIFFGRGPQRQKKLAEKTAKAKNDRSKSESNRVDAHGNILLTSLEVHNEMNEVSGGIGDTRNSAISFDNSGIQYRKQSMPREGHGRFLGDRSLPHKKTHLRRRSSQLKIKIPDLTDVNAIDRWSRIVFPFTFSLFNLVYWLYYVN
Sequence of α5β3γ2 GABAA R (P18507 40-475): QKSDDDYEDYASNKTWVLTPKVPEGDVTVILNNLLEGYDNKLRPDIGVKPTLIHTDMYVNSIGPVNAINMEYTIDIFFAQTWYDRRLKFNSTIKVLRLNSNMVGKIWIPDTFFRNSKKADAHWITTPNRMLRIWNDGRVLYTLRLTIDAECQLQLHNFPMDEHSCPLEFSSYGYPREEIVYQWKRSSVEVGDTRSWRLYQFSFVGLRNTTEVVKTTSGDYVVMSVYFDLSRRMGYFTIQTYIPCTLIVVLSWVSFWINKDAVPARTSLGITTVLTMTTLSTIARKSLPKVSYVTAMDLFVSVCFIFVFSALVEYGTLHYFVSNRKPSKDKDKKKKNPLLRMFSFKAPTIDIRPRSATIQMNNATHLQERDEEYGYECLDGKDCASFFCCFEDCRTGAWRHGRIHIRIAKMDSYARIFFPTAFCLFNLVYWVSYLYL
T1 sequence (P31644 32-462): as the sequence (P31644 32-462) above
T1 sequence (P47870 25-512 partner limits assumed): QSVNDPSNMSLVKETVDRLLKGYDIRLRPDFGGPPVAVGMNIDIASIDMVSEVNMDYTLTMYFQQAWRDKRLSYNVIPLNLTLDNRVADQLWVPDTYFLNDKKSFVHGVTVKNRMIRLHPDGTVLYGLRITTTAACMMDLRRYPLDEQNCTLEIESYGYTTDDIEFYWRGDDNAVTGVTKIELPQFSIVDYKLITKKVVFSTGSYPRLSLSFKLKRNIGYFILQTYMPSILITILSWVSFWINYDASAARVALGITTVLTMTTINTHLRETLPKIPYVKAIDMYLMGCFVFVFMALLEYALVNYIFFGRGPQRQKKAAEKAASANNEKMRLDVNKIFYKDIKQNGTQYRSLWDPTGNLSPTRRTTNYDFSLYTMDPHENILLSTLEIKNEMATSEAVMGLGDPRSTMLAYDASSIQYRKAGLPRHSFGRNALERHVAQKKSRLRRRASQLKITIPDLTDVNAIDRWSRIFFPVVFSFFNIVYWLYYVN
T1 sequence (P18507 40-475): as the sequence (P18507 40-475) above

Row | SMILES | Ki (α5β3γ2 GABAA R) [nM] | activation at 0.1 µM (GABAA R (α5β2γ2); [1]) [%] | Ki (α5β3γ2 GABAA R; [2]) [nM] | activation at 0.1 µM (GABAA R (α5β2γ2); [3]) [%]
1 | CC(C)c1noc(-c2ncn3c2Cc2cn(CC4CCCO4)nc2-c2cc(Cl)ccc2-3)n1 (stereo not drawn) [Compound 193] | < 100 | 20 to 50 | – | –
2 | CCn1ncc2c1-c1cc(Cl)ccc1-n1cnc(-c3nc(C4CC4)no3)c1C2 [Compound 139] | – | – | < 100 | 20 to 50
3 | Clc1ccc2c(c1)-c1[nH]ncc1Cc1c(C#Cc3ccccn3)ncn1-2 [Compound 94] | – | – | < 100 | 20 to 50
4 | COc1ccc2c(c1)-c1nn(C)cc1Cc1c(-c3nc(C4COC4)no3)ncn1-2 [Compound 239] | < 100 | 20 to 50 | – | –
5 | COc1ccc2c(c1)-c1nn(CC3CC3)cc1Cc1c(-c3nc(C4CC4)no3)ncn1-2 [Compound 171] | < 100 | 5 to 20 | – | –
6 | COc1ccc2c(c1)-c1nn(CC3CCCO3)cc1Cc1c(-c3noc(C(F)(F)F)n3)ncn1-2 (stereo not drawn) [Compound 295] | < 100 | 20 to 50 | – | –
7 | Cc1noc(-c2ncn3c2Cc2cn[nH]c2-c2cc(Cl)ccc2-3)n1 [Compound 33] | < 100 | 20 to 50 | – | –
8 | COc1ccc2c(c1)-c1nn(CC3CCCO3)cc1Cc1c(-c3noc(COCC(F)(F)F)n3)ncn1-2 (stereo not drawn) [Compound 292] | < 100 | 5 to 20 | – | –
9 | Cn1cc2c(n1)-c1cc(Cl)ccc1-n1cnc(-c3noc(C4(C)COC4)n3)c1C2 [Compound 225] | < 100 | 20 to 50 | – | –
10 | Clc1ccc2c(c1)-c1nn(CC3CC3)cc1Cc1c(-c3nc(C4CC4)no3)ncn1-2 [Compound 129] | < 100 | 20 to 50 | – | –
11 | CC(C)n1cc2c(n1)-c1cc(Cl)ccc1-n1cnc(-c3nc(C4CC4)no3)c1C2 [Compound 154] | < 100 | 5 to 20 | – | –
12 | CC(C)(C)c1noc(-c2ncn3c2Cc2cn[nH]c2-c2cc(Cl)ccc2-3)n1 [Compound 35] | < 100 | 20 to 50 | – | –
13 | CCn1cc2c(n1)-c1cc(OC)ccc1-n1cnc(-c3noc(CN(C)C)n3)c1C2 [Compound 248] | < 100 | 20 to 50 | – | –
14 | COc1ccc2c(c1)-c1nn(CC3CCOC3)cc1Cc1c(-c3nc(C4CC4)no3)ncn1-2 (stereo not drawn) [Compound 168] | < 100 | 20 to 50 | – | –
15 | COc1ccc2c(c1)-c1nn(CC3COC3)cc1Cc1c(-c3nc(C4CC4)no3)ncn1-2 [Compound 226] | – | – | < 100 | 5 to 20
16 | COC1(c2nc(-c3ncn4c3Cc3cn(C)nc3-c3cc(Cl)ccc3-4)no2)CC1 [Compound 216] | < 100 | 5 to 20 | – | –
17 | Cn1cc2c(n1)-c1cc(Cl)ccc1-n1cnc(-c3cnn(Cc4cccnc4)c3)c1C2 [Compound 208] | < 100 | 5 to 20 | – | –
18 | COc1ccc2c(c1)-c1[nH]ncc1Cc1c(-c3noc(C4COCCO4)n3)ncn1-2 (stereo not drawn) [Compound 187] | < 100 | 20 to 50 | – | –
19 | Clc1ccc2c(c1)-c1c(cnn1CC1CC1)Cc1c(-c3nc(C4CC4)no3)ncn1-2 [Compound 162] | < 100 | 5 to 20 | – | –
20 | CCn1cc2c(n1)-c1cc(Cl)ccc1-n1cnc(-c3nc(C)no3)c1C2 [Compound 159] | < 100 | 20 to 50 | – | –
21 | CC(C)(C)C#Cc1ncn2c1Cc1cn[nH]c1-c1cc(Cl)ccc1-2 [Compound 63] | – | – | < 100 | 20 to 50
22 | COc1ccc2c(c1)-c1[nH]ncc1Cc1c(-c3noc(C4(OC)CC4)n3)ncn1-2 [Compound 188] | – | – | < 100 | > 50
23 | COc1ccc2c(c1)-c1[nH]ncc1Cc1c(-c3noc(C)n3)ncn1-2 [Compound 88] | < 100 | 5 to 20 | – | –
24 | COc1ccc2c(c1)-c1nn(Cc3ccccc3F)cc1Cc1c(-c3nc(C)no3)ncn1-2 [Compound 21] | < 100 | 5 to 20 | – | –
25 | Clc1ccc2c(c1)-c1[nH]ncc1Cc1c(-c3nc(C4CC4)no3)ncn1-2 [Compound 105] | < 100 | 20 to 50 | – | –
26 | COCCn1cc2c(n1)-c1cc(OC)ccc1-n1cnc(-c3nc(COC)no3)c1C2 [Compound 300] | < 100 | 20 to 50 | – | –
27 | Cn1cc2c(n1)-c1cc(Cl)ccc1-n1cnc(C#CC(C)(C)C)c1C2 [Compound 101] | < 100 | 20 to 50 | – | –
28 | CCn1cc2c(n1)-c1cc(Cl)ccc1-n1cnc(-c3noc(C4CC4)n3)c1C2 [Compound 176] | – | – | < 100 | 5 to 20
29 | Cn1cc2c(n1)-c1cc(Cl)ccc1-n1cnc(-c3nc([C@@H]4CCOC4)no3)c1C2 [Compound 261] | < 100 | 5 to 20 | – | –
30 | CCn1cc2c(n1)-c1cc(Cl)ccc1-n1cnc(-c3noc(COC(C)(C)C)n3)c1C2 [Compound 197] | < 100 | 5 to 20 | – | –
